From patent US7354936B2, “2-phenylpyran-4-one derivatives” (Almirall AG, priority 2000, dated 2008)

Legend:
COX-1 = biological target: T1, COX-1 (Homo sapiens, UniProt P23219); assay: COX-1 activity in human whole blood (TXB2, calcium ionophore A23187); type: cell-based; conditions: for inhibition at 100 µM: read-out: COX-1 inhibition at 100 μM, at 100 μM; for IC50: 1 h at 37° C., TXB2 by ELISA
T1 construct: Fresh blood from healthy volunteers; from tissue; host or cells: human whole blood (heparinized) from healthy volunteers

COX-2 = biological target: T2, COX-2 (Homo sapiens, UniProt P35354); assay: COX-2 activity in human whole blood (PGE2, LPS-induced); type: cell-based; conditions: for IC50: LPS 24 h at 37° C., PGE2 by ELISA; for Ratio COX-1/COX-2: ratio of COX-1/COX-2 IC50 values
T2 construct: incubated in the presence of LPS (10:g/ml) for 24 h at 37° C. in order to induce the COX-2 expression; from tissue; host or cells: human whole blood (heparinized) from healthy volunteers, LPS-stimulated for 24 h
T2 sequence (P35354 18-604): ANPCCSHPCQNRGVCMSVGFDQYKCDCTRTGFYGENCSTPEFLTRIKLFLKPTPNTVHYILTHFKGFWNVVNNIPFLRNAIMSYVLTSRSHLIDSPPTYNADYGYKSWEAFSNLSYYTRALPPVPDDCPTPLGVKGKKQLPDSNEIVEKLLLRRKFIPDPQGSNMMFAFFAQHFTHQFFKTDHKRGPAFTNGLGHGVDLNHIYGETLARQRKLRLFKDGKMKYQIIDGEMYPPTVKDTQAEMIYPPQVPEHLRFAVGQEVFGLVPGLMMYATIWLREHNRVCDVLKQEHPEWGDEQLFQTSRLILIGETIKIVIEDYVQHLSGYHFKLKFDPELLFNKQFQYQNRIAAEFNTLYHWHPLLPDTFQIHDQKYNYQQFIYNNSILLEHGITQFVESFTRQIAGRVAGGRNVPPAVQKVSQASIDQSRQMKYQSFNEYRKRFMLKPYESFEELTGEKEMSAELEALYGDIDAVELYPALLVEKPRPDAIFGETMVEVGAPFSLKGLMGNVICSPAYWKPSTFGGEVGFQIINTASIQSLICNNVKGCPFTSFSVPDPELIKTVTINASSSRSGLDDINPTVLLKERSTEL

T1 sequence (P23219 24-599): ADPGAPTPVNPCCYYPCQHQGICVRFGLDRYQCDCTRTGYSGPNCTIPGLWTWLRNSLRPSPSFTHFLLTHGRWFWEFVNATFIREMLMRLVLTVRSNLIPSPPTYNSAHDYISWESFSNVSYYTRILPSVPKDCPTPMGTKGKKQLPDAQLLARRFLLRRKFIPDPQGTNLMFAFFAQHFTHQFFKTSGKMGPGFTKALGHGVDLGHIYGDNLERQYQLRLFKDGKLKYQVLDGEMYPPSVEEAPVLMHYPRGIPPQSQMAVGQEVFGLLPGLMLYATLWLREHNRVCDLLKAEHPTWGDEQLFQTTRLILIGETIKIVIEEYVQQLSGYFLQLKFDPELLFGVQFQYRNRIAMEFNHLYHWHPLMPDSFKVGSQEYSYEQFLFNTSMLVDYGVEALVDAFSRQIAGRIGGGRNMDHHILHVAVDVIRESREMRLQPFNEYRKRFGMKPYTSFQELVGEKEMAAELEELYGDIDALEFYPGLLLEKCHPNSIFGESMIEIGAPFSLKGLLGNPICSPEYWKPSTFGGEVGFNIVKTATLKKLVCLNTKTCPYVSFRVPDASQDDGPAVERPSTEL

Row | melting point | inhibition at 100 µM (COX-1) | IC50 (COX-2) | Ratio COX-1/COX-2 (COX-2) | IC50 (COX-1) | SMILES
1 | 175 °C |  |  |  |  | CC(=O)OCc1cc(=O)c(Oc2ccc(F)cc2F)c(-c2ccc(S(C)(=O)=O)cc2)o1 [Example 29, Acetic acid [5-(2,4-difluorophenoxy)-6-(4-methanesulfonylphenyl)-4-oxo-4H-pyran-2-yl]methyl ester]
2 | 156 °C |  |  |  |  | CS(=O)(=O)c1ccc(-c2oc(C(F)F)cc(=O)c2Oc2ccc(F)cc2F)cc1 [Example 34, 6-(1,1-Difluoromethyl)-3-(2,4-difluorophenoxy)-2-(4-methanesulfonylphenyl)pyran-4-one]
3 | 180 °C |  | 140 nM | 359 | 50300 nM | CC(=O)OCc1cc(=O)c(Oc2ccc(F)cc2)c(-c2ccc(S(C)(=O)=O)cc2)o1 [Example 30, Acetic acid [5-(4-fluorophenoxy)-6-(4-methanesulfonylphenyl)-4-oxo-4H-pyran-2-yl]methyl ester]
4 | 263 °C |  |  |  |  | CS(=O)(=O)c1ccc(-c2oc(C(=O)O)cc(=O)c2Oc2ccc(Cl)cc2)cc1 [Example 33, 5-(4-Chlorophenoxy)-6-(4-methanesulfonylphenyl)-4-oxo-4H-pyran-2-carboxylic acid]
5 |  |  | 320 nM | 270 | 86300 nM | COCc1cc(=O)c(Oc2ccc(F)cc2)c(-c2ccc(S(C)(=O)=O)cc2)o1 [Example 27, 3-(4-Fluorophenoxy)-2-(4-methanesulfonylphenyl)-6-methoxymethylpyran-4-one]
6 | 187.8 to 188.6 °C |  |  |  |  | Cc1c(C(F)F)oc(-c2ccc(S(C)(=O)=O)cc2)c(Oc2ccc(F)cc2F)c1=O [Example 38, 2-(1,1-Difluoromethyl)-5-(2,4-difluorophenoxy)-6-(4-methanesulfonylphenyl)-3-methylpyran-4-one]
7 | 160 °C |  | 97 nM | 294 | 28500 nM | Cc1ccc(Oc2c(-c3ccc(S(C)(=O)=O)cc3)oc(C(F)F)cc2=O)cc1 [Example 36, 6-(1,1-Difluoromethyl)-2-(4-methanesulfonylphenyl)-3-(4-methylphenoxy)pyran-4-one]
8 | 156 °C |  | 440 nM | 209 | 91900 nM | COCc1cc(=O)c(Oc2ccc(Cl)cc2)c(-c2ccc(S(C)(=O)=O)cc2)o1 [Example 28, 3-(4-Chlorophenoxy)-2-(4-methanesulfonylphenyl)-6-methoxymethylpyran-4-one]
9 | 115 °C | 17% | 1100 nM | >90 |  | CC(=O)OCc1cc(=O)c(Oc2ccc(Cl)cc2)c(-c2ccc(S(C)(=O)=O)cc2)o1 [Example 31, Acetic acid [5-(4-chlorophenoxy)-6-(4-methanesulfonylphenyl)-4-oxo-4H-pyran-2-yl]methyl ester]
10 | 245 °C |  | 420 nM | 1070 | 450000 nM | CS(=O)(=O)c1ccc(-c2oc(C(=O)O)cc(=O)c2Oc2ccc(F)cc2F)cc1 [Example 32, 5-(2,4-Difluorophenoxy)-6-(4-methanesulfonylphenyl)-4-oxo-4H-pyran-2-carboxylic acid]

The next lines start with the compound.

Row | SMILES | melting point | inhibition at 100 µM (COX-1) | IC50 (COX-2) | Ratio COX-1/COX-2 (COX-2) | IC50 (COX-1)
11 | CS(=O)(=O)c1ccc(-c2oc(CO)cc(=O)c2Oc2ccc(Br)cc2F)cc1 [Example 25, 3-(2-Fluoro-4-bromophenoxy)-6-hydroxymethyl-2-(4-methanesulfonylphenyl)pyran-4-one] | 202 to 203 °C |  |  |  | 
12 | Cc1ccc(Oc2c(-c3ccc(S(C)(=O)=O)cc3)oc(C)cc2=O)c(F)c1 [Example 12, 3-(2-Fluoro-4-methylphenoxy)-2-(4-methanesulfonylphenyl)-6-methyl pyran-4-one] | 171 °C |  |  |  | 
13 | CS(=O)(=O)c1ccc(-c2oc(CO)cc(=O)c2Oc2ccc(Cl)cc2)cc1 [Example 24, 3-(4-Chlorophenoxy)-6-hydroxymethyl-2-(4-methanesulfonylphenyl)pyran-4-one] | 227 °C | 13% | 600 nM | >150 | 
14 | CCc1oc(-c2ccc(S(C)(=O)=O)cc2)c(Oc2ccc(F)cc2F)c(=O)c1C [Example 13, 3-(2,4-Difluorophenoxy)-6-ethyl-2-(4-methanesulfonylphenyl)-5-methyl pyran-4-one] | 200 °C |  |  |  | 
15 | CS(=O)(=O)c1ccc(-c2oc(CO)cc(=O)c2Oc2ccc(F)cc2)cc1 [Example 23, 3-(4-Fluorophenoxy)-6-hydroxymethyl-2-(4-methanesulfonylphenyl)pyran-4-one] | 206 °C | 2% | 1440 nM | >70 | 
16 | Cc1oc(-c2ccc(S(C)(=O)=O)cc2)c(Oc2ccc(F)cc2F)c(=O)c1C [Example 19, 3-(2,4-Difluorophenoxy)-5,6-dimethyl-2-(4-methanesulfonylphenyl)pyran-4-one] | 192 °C |  | 82 nM | 178 | 14600 nM
17 | CCc1c(C)oc(-c2ccc(S(C)(=O)=O)cc2)c(Oc2ccc(F)cc2F)c1=O [Example 21, 3-(2,4-Difluorophenoxy)-5-ethyl-2-(4-methanesulfonylphenyl)-6-methyl pyran-4-one] | 173 °C |  | 580 nM | 62 | 35600 nM
18 | Cc1ccc(Oc2c(-c3ccc(S(C)(=O)=O)cc3)oc(C)cc2=O)c(Cl)c1 [Example 3, 3-(2-Chloro-4-methylphenoxy)-2-(4-methanesulfonylphenyl)-6-methyl pyran-4-one] |  |  | 240 nM | 68 | 16300 nM
19 | Cc1oc(-c2ccc(S(C)(=O)=O)cc2)c(Oc2ccc(Cl)cc2)c(=O)c1Br [Example 18, 3-Bromo-5-(4-chlorophenoxy)-6-(4-methanesulfonylphenyl)-2-methyl pyran-4-one] | 251 °C |  | 820 nM | 93 | 76700 nM
20 | Cc1cc(=O)c(Oc2ccc(F)cc2C)c(-c2ccc(S(C)(=O)=O)cc2)o1 [Example 1, 3-(4-Fluoro-2-methylphenoxy)-2-(4-methanesulfonylphenyl)-6-methyl pyran-4-one] | 146 °C |  | 180 nM | 118 | 
21 | Cc1cc(=O)c(Oc2ccc(Br)cc2Cl)c(-c2ccc(S(C)(=O)=O)cc2)o1 [Example 7, 3-(4-Bromo-2-chlorophenoxy)-2-(4-methanesulfonylphenyl)-6-methyl pyran-4-one] |  |  | 210 nM |  | 
22 | COCc1cc(=O)c(Oc2ccc(F)cc2F)c(-c2ccc(S(C)(=O)=O)cc2)o1 [Example 26, 3-(2,4-Difluorophenoxy)-2-(4-methanesulfonylphenyl)-6-methoxymethyl pyran-4-one] | 124 °C |  | 170 nM | 124 | 21100 nM
23 | Cc1cc(=O)c(Oc2ccc(Br)cc2F)c(-c2ccc(S(C)(=O)=O)cc2)o1 [Example 6, 3-(4-Bromo-2-fluorophenoxy)-2-(4-methanesulfonylphenyl)-6-methyl pyran-4-one] |  |  |  | 268 | 40200 nM
24 | Cc1oc(-c2ccc(S(C)(=O)=O)cc2)c(Oc2ccc(F)cc2F)c(=O)c1Br [Example 17, 3-Bromo-5-(2,4-difluorophenoxy)-6-(4-methanesulfonylphenyl)-2-methyl pyran-4-one] |  |  | 780 nM | 27 | 20000 nM
25 | Cc1cc(=O)c(Oc2ccc(Br)cc2Br)c(-c2ccc(S(C)(=O)=O)cc2)o1 [Example 8, 3-(2,4-Dibromophenoxy)-2-(4-methanesulfonylphenyl)-6-methyl-pyran-4-one] |  |  | 1130 nM | 51 | 57500 nM
26 | CS(=O)(=O)c1ccc(-c2oc(CO)cc(=O)c2Oc2ccc(F)cc2F)cc1 [Example 22, 3-(2,4-Difluorophenoxy)-6-hydroxymethyl-2-(4-methanesulfonylphenyl) pyran-4-one] | 205 °C |  | 190 nM | 279 | 53000 nM
27 | Cc1oc(-c2ccc(S(C)(=O)=O)cc2)c(Oc2ccc(F)cc2F)c(=O)c1Cl [Example 14, 3-Chloro-5-(2,4-difluorophenoxy)-6-(4-methanesulfonylphenyl)-2-methyl pyran-4-one] | 210 °C |  |  |  | 
28 | Cc1oc(-c2ccc(S(C)(=O)=O)cc2)c(Oc2ccc(F)cc2)c(=O)c1Cl [Example 15, 3-Chloro-5-(4-fluorophenoxy)-6-(4-methanesulfonylphenyl)-2-methyl pyran-4-one] | 279 °C |  |  |  | 
29 | Cc1cc(=O)c(Oc2ccc(Cl)cc2C)c(-c2ccc(S(C)(=O)=O)cc2)o1 [Example 2, 3-(4-Chloro-2-methylphenoxy)-2-(4-methanesulfonylphenyl)-6-methyl pyran-4-one] |  |  | 130 nM | 296 | 38500 nM
